Assay results: PubChem BioAssay AID328 (DTP/NCI, 2004)
“And” between values parts separate entries of the source, which are not always exact repeats. Equal entries are not always repeated. Toxic doses and inconclusive results are not listed. Rule for the calls: active = survival T/C of 150% or more; inactive = T/C below 125% in these data. Residues, ends and D or L forms follow the SMILES beside them.

Test system: BDF1 mice, P388 leukemia ip, median survival T/C
Assay: NCI In Vivo Anticancer Drug Screen. Data for tumor model P388 Leukemia (intraperitoneal) in B6D2F1 (BDF1) mice
Conditions: endpoint: median survival time, higher = longer survival
Method in brief: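 Transplantable tumour in mice; compound vs vehicle dosing; survival scored; ratio of treated to control reported.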

[1] = dose: 100.0 mg/kg/injection, schedule: Q01DX009 (ip), vehicle: saline with Tween-80
[2] = dose: 100.0 mg/kg/injection, schedule: Q04DX003 (ip), vehicle: saline
[3] = dose: 200.0 mg/kg/injection, schedule: Q01DX009 (ip), vehicle: saline with Tween-80
[4] = dose: 400.0 mg/kg/injection, schedule: Q01DX009 (ip), vehicle: saline with Tween-80
[5] = dose: 6.25 mg/kg/injection, schedule: Q01DX009 (ip), vehicle: saline with Tween-80
[6] = dose: 12.5 mg/kg/injection, schedule: Q01DX009 (ip), vehicle: saline with Tween-80
[7] = dose: 25.0 mg/kg/injection, schedule: Q01DX009 (ip), vehicle: saline with Tween-80
[8] = dose: 25.0 mg/kg/injection, schedule: Q04DX003 (ip), vehicle: saline with Tween-80
[9] = dose: 50.0 mg/kg/injection, schedule: Q01DX009 (ip), vehicle: saline with Tween-80
[10] = dose: 50.0 mg/kg/injection, schedule: Q04DX003 (ip), vehicle: saline with Tween-80
[11] = dose: 100.0 mg/kg/injection, schedule: Q04DX003 (ip), vehicle: saline with Tween-80
[12] = dose: 200.0 mg/kg/injection, schedule: Q04DX003 (ip), vehicle: saline with Tween-80
[13] = dose: 50.0 mg/kg/injection, schedule: Q01DX009 (ip), vehicle: saline
[14] = dose: 100.0 mg/kg/injection, schedule: Q01DX009 (ip), vehicle: saline
[15] = dose: 200.0 mg/kg/injection, schedule: Q01DX009 (ip), vehicle: saline
[16] = dose: 400.0 mg/kg/injection, schedule: Q04DX003 (ip), vehicle: saline with Tween-80
[17] = dose: 25.0 mg/kg/injection, schedule: Q04DX003 (ip), vehicle: saline
[18] = dose: 50.0 mg/kg/injection, schedule: Q04DX003 (ip), vehicle: saline
[19] = dose: 12.5 mg/kg/injection, schedule: Q04DX003 (ip), vehicle: saline with Tween-80

Measured: T/C

C#CC1(OCC2CN(c3ccccc3)C(=O)O2)CCCCC1 (stereo not given)
inactive: [1] 90 % of control | [2] 100 % of control | [3] 100 % of control | dose: 200.0 mg/kg/injection, schedule: Q04DX003 (ip), vehicle: saline 100 % of control | [4] 109 % of control | dose: 400.0 mg/kg/injection, schedule: Q04DX003 (ip), vehicle: saline 100 % of control

CCOC(=O)C(C(=O)OCC)=C(C)OCC
inactive: [5] 106 % of control | [6] 86 % of control | [7] 97 % of control | [8] 99 % of control | [9] 97 % of control | [10] 107 % of control | [1] 106 % of control | [11] 90 % of control | [12] 107 % of control

COc1cc2c(cc1OC)C(CN)C2 (stereo not given)
inactive: [13] 98 % of control | [14] 96 % of control | [15] 98 % of control

CC(=O)OC1CCCc2c1nc1ccccc1[n+]2[O-] (stereo not given)
inactive: [9] 88 % of control | [1] 100 % of control | [3] 96 % of control

O=CC1CO1 (stereo not given)
inactive: dose: 33.0 mg/kg/injection, schedule: Q01DX009 (ip), vehicle: saline 116 % of control
active: dose: 33.0 mg/kg/injection, schedule: Q01DX009 (ip), vehicle: saline sonified 150 % of control

O=C(NO)/C(Cc1ccccc1)=N/O
inactive: [9] 99 % of control | [1] 104 % of control | [3] 98 % of control

CC([NH-])=O.CC([NH-])=O.[Pt+2]
inactive: dose: 25.0 mg/kg/injection, schedule: Q01DX009 (ip), vehicle: water 96 % of control | dose: 50.0 mg/kg/injection, schedule: Q01DX009 (ip), vehicle: water 104 % of control | dose: 100.0 mg/kg/injection, schedule: Q01DX009 (ip), vehicle: water 102 % of control | dose: 200.0 mg/kg/injection, schedule: Q01DX009 (ip), vehicle: water 107 % of control | dose: 300.0 mg/kg/injection, schedule: Q01DX009 (ip), vehicle: water 112 % of control

CC[N+](C)(C)Cc1ccccc1
inactive: dose: 6.25 mg/kg/injection, schedule: Q01DX009 (ip), vehicle: saline 106 % of control | dose: 12.5 mg/kg/injection, schedule: Q01DX009 (ip), vehicle: saline 106 % of control

Cn1c2nc(=O)n(-c3ccccc3)c(=O)c-2nc2ccccc21
inactive: [6] 95 % of control | [7] 104 % of control | [9] 91 % of control and 95 % of control

CC(C)C(=O)OCC1OC(n2cnc3c(=S)nc(N)[nH]c32)C(OC(=O)C(C)C)C1OC(=O)C(C)C (stereo not given)
inactive: dose: 25.0 mg/kg/injection, schedule: Q01DX009 (ip), vehicle: Klucel (hydroxypropylcellulose) (HPC) 92 % of control

Fc1ccc(-c2n[nH]c3c2CCCc2ccccc2-3)cc1
inactive: [11] 114 % of control | [12] 114 % of control | [16] 123 % of control

COc1cc(C(C)O)cc(OC)c1OC (stereo not given)
inactive: [1] 92 % of control | [11] 95 % of control | [3] 92 % of control | [12] 104 % of control | [16] 95 % of control

C1=NCCCN1
inactive: [17] 100 % of control | [18] 100 % of control | [2] 100 % of control

NN1N=Nc2cccc3cccc1c23
inactive: [13] 105 % of control | [14] 110 % of control | dose: 110.0 mg/kg/injection, schedule: Q04DX003 (ip), vehicle: saline 100 % of control | dose: 170.0 mg/kg/injection, schedule: Q04DX003 (ip), vehicle: saline 95 % of control | [15] 110 % of control | dose: 255.0 mg/kg/injection, schedule: Q04DX003 (ip), vehicle: saline 95 % of control

CC1(C)COC(C)(C)C(=O)O1
inactive: dose: 50.0 mg/kg/injection, schedule: Q04DX003 (ip), vehicle: Klucel (hydroxypropylcellulose) (HPC) 95 % of control | dose: 100.0 mg/kg/injection, schedule: Q04DX003 (ip), vehicle: Klucel (hydroxypropylcellulose) (HPC) 90 % of control | dose: 200.0 mg/kg/injection, schedule: Q04DX003 (ip), vehicle: Klucel (hydroxypropylcellulose) (HPC) 100 % of control

O=[N+]([O-])c1cccc(/C=C/C=C/c2ccc(S(=O)(=O)F)cc2Cl)c1
inactive: dose: 100.0 mg/kg/injection, schedule: Q01DX001 (ip), vehicle: Klucel (hydroxypropylcellulose) (HPC) 100 % of control | dose: 200.0 mg/kg/injection, schedule: Q01DX001 (ip), vehicle: Klucel (hydroxypropylcellulose) (HPC) 95 % of control | dose: 400.0 mg/kg/injection, schedule: Q01DX001 (ip), vehicle: Klucel (hydroxypropylcellulose) (HPC) 95 % of control

CC(C)CC(Br)C(=O)NC(CC(C)C)C(=O)O (stereo not given)
inactive: [11] 104 % of control | [12] 100 % of control | [16] 109 % of control

CC(C)=CCC/C(C)=C/Cn1cnc2c(ncn2C2OC(CO)C(O)C2O)c1=O (stereo not given)
inactive: dose: 12.5 mg/kg/injection, schedule: Q04DX003 (ip), vehicle: saline 110 % of control | [17] 105 % of control | [18] 114 % of control

CCCCCCC(CCCCCC)(CCCCCC)B1OCCO1
inactive: [1] 100 % of control | [11] 100 % of control | [3] 104 % of control | [12] 109 % of control | [4] 123 % of control | [16] 104 % of control

Cc1ccc(C(=S)NC(=O)Nc2ccccc2)cc1
inactive: dose: 50.0 mg/kg/injection, schedule: Q01DX001 (ip), vehicle: saline with Tween-80 93 % of control | dose: 100.0 mg/kg/injection, schedule: Q01DX001 (ip), vehicle: saline with Tween-80 92 % of control | dose: 200.0 mg/kg/injection, schedule: Q01DX001 (ip), vehicle: saline with Tween-80 90 % of control

CN1CCC(S)(S)CC1
inactive: [19] 100 % of control | [8] 100 % of control | [10] 109 % of control

CC12C3C(=O)NC45CCCC41C5(c1ccccc1)C32c1ccccc1 (stereo not given)
inactive: dose: 100.0 mg/kg/injection, schedule: Q01DX001 (ip), vehicle: saline sonified 95 % of control | dose: 200.0 mg/kg/injection, schedule: Q01DX001 (ip), vehicle: saline sonified 95 % of control | dose: 400.0 mg/kg/injection, schedule: Q01DX001 (ip), vehicle: saline sonified 86 % of control

Cc1ccc[nH]c1=O
inactive: dose: 50.0 mg/kg/injection, schedule: Q04DX003 (ip), vehicle: saline sonified 91 % of control | dose: 100.0 mg/kg/injection, schedule: Q04DX003 (ip), vehicle: saline sonified 91 % of control | dose: 200.0 mg/kg/injection, schedule: Q04DX003 (ip), vehicle: saline sonified 100 % of control

CC(C)C(NC(=O)C(NC(=O)C(CCCN=C(N)N)NC(=O)C(N)CCCCN)C(C)C)C(N)=O (stereo not given) (H-KRVV-NH2; configuration not given here)
inactive: dose: 12.5 mg/kg/injection, schedule: Q04DX003 (ip), vehicle: water 101 % of control | dose: 25.0 mg/kg/injection, schedule: Q04DX003 (ip), vehicle: water 97 % of control | dose: 50.0 mg/kg/injection, schedule: Q04DX003 (ip), vehicle: water 107 % of control | dose: 100.0 mg/kg/injection, schedule: Q04DX003 (ip), vehicle: water 92 % of control | dose: 200.0 mg/kg/injection, schedule: Q04DX003 (ip), vehicle: water 93 % of control

CC(O)(/C=C\c1ccccc1)c1ccccc1 (stereo not given)
inactive: [1] 105 % of control | [11] 95 % of control | [3] 107 % of control | [12] 104 % of control | [4] 105 % of control | [16] 104 % of control

CC(C)Cn1c(Cl)c(/C=N\Nc2ccccc2[N+](=O)[O-])c2ccccc21
inactive: dose: 100.0 mg/kg/injection, schedule: Q04DX002 (ip), vehicle: Klucel (hydroxypropylcellulose) (HPC) 92 % of control | dose: 200.0 mg/kg/injection, schedule: Q04DX002 (ip), vehicle: Klucel (hydroxypropylcellulose) (HPC) 99 % of control

COC(=O)C1=C(C(=O)OC)C2C=CC1C1CC(OC(C)=O)C21 (stereo not given)
inactive: [9] 113 % of control | [1] 113 % of control | [3] 101 % of control

O=C(Nc1ccc2c(c1)OCO2)O/N=C\c1cccnc1
inactive: [10] 100 % of control | [11] 109 % of control | [12] 109 % of control

CC(C)CC(CC(C)C)NCC(C)OC(=O)c1ccc(N)cc1 (stereo not given)
inactive: [5] 104 % of control | dose: 6.25 mg/kg/injection, schedule: Q04DX003 (ip), vehicle: saline with Tween-80 107 % of control | [6] 93 % of control | [19] 114 % of control | [7] 104 % of control | [8] 114 % of control | [10] 114 % of control
